The source of these data is patent US11707439B2, “Parenteral treatments involving aminoadamantane derivatives” (Shinkei Therapeutics, Inc., priority 2019, dated 2023).

Data set [1] is described as follows: Osmolality of amantadine hydrochloride solution in sterile water for injection. The format is physicochemical. From the text: Examples of tonicity agents that can be used in the compositions of the present invention include, but are not limited to, sodium chloride, mannitol, dextrose, potassium chloride, sodium chloride and mixtures thereof. The tonicity agents may be present in an amount so as to provide osmolality of from about 250 mOsm/kg to about 350 mOsm/kg, particularly from 280 mOsm/kg to 320 mOsm/kg.

Data set [2] can be described thus: Pharmacokinetic study in 10 healthy subjects: intravenous infusion vs oral capsules. In kind it is in vivo, human. Conditions: for Tmax / Cmax / half-life: fasted healthy subjects.
The test system of a further data set is fluid percussion injury. Conditions: chronic amantadine-pumping infusion, cited from earlier work.
The conditions of data set [3]: postmortem brain tissue of 21 patients previously treated with amantadine sulfate; cited from earlier work.
The test system of data set [4] is persistent vegetative state. Conditions: single patient; 100 mg/day intravenously increased to 300 mg/day, then enteral; cited from earlier work.
For data set [5] the following is noted: continuous subcutaneous administration, Parkinson's disease patients; cited from earlier work.

Where a name gives a salt, the structure may show the parent alone. Read-outs that look alike come from different tables or passages of the source.

As a reminder, the Tmax is the time at which the peak concentration occurs. Usually Cmax stands for the maximum level reached in the sampled fluid or tissue.

On to `NC12CC3CC(CC(C3)C1)C2` [amantadine hydrochloride], for which the Osmolality in data set [1] (10 mg/ml solution in sterile water for injection) is given as 97 mOsm/kg; in data set [1] (20 mg/ml solution in sterile water for injection), 192 mOsm/kg; in data set [1] (30 mg/ml solution in sterile water for injection) it was 283 mOsm/kg; in data set [1] (40 mg/ml solution in sterile water for injection), 369 mOsm/kg; in data set [1] (50 mg/ml solution in sterile water for injection), 509 mOsm/kg; in data set [1] (75 mg/ml solution in sterile water for injection), 671 mOsm/kg.

`NC12CC3CC(CC(C3)C1)C2` [amantadine, 1-amantanamine]: the “Peak and total plasma exposures following the infusion, lower than reference oral dose” value in data set [2] (50 mg intravenous infusion vs 200 mg oral dose) is listed as “approximately 5 fold”. Further, the time to peak (Tmax) in data set [2] (human, plasma, iv, 50 mg, Treatment A: single 50 mg dose, intravenous infusion over 180 minutes, plasma, read-out: mean Tmax) was determined as 4.1 h; in data set [2] (human, plasma, iv, 50 mg, Treatment A: single 50 mg dose, intravenous infusion over 180 minutes, plasma, read-out: median Tmax), 4 h; in data set [2] (human, plasma, po, 200 mg, Treatment B: single 200 mg oral dose as 2×100 mg capsules, plasma, read-out: mean Tmax) it was 3.6 h; in data set [2] (human, plasma, po, 200 mg, Treatment B: single 200 mg oral dose as 2×100 mg capsules, plasma, read-out: median Tmax) it was 2.8 h. Moreover, the bioavailability in data set [2] (human, plasma, 200 mg oral, from LSGM A/B ratio of CLIV to CLIV/F, read-out: bioavailability of the oral capsule) is 122%. Besides, the Cmax in data set [2] (human, Treatment A: single 50 mg dose, intravenous infusion over 180 minutes, plasma) turned out to be 142 ng/mL; in data set [2] (human, Treatment B: single 200 mg oral dose as 2×100 mg capsules, plasma), 643 ng/mL. The half-life in data set [2] (human, Treatment A: single 50 mg dose, intravenous infusion over 180 minutes, plasma, read-out: mean apparent first-order elimination half-life (T1/2) (converted)) is 840 min; in data set [2] (human, Treatment B: single 200 mg oral dose as 2×100 mg capsules, plasma, read-out: mean T1/2 (converted)), 876 min. In addition, in the data set with fluid percussion injury (rats after fluid percussion injury), the dopamine-release deficits entry was “reversed”. The “behavioral impairment after fluid percussion injuries” value in the data set with fluid percussion injury (rats) was “ameliorated”. In data set [3], the “elimination half-life from brain tissue” value was “much longer than from blood”. The “clinical outcome in persistent vegetative state” value in data set [4] is given as “stunning awakening of the patient, fully orientated within days”.

As to `CN1CCc2cccc3c2[C@H]1Cc1ccc(O)c(O)c1-3` [apomorphine], the “eosinophilia and orthostatic hypotension, share of PD patients” value in data set [5] is recorded as “less than 5%”.
